Data published in the supplement of paper PMC10307832.

Assays:
Test in all cases: relative viability (nuclei count vs DMSO), 5 days (fraction); higher = more cells survive
Mirin + Decitabine = compound: N=C1NC(=O)/C(=C/c2ccc(O)cc2)S1 [Mirin] + Nc1ncn([C@H]2C[C@H](O)[C@@H](CO)O2)c(=O)n1 [Decitabine] (partner 2 µM)
Procedure, shortened: (§1)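 Lung cancer cell lines, seeded in 1536-well plates, were treated the following day by pin tool with a single drug or with five library-drug doses (not always all listed) in √10 steps on top of a fixed anchor-drug dose. Cells were fixed and nuclei stained in one step after 5 days, and nuclei were counted. Relative viability is the nuclei count for treated wells divided by that for vehicle wells, reported as medians of duplicate plates.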

Mirin + Alpelisib = compound: N=C1NC(=O)/C(=C/c2ccc(O)cc2)S1 [Mirin] + Cc1nc(NC(=O)N2CCC[C@H]2C(N)=O)sc1-c1ccnc(C(C)(C)C(F)(F)F)c1 [Alpelisib] (partner 2 µM)
Procedure, shortened: as §1

[1] = compound: CCn1c(-c2nonc2N)nc2cnc(Oc3cccc(NC(=O)c4ccc(OCCN5CCOCC5)cc4)c3)cc21 + Cc1cc(Nc2cc(N3CCN(C)CC3)nc(Sc3ccc(NC(=O)C4CC4)cc3)n2)n[nH]1 [Tozasertib] (partner 0.1 µM)
Procedure, shortened: as §1

Mirin + Palbociclib = compound: N=C1NC(=O)/C(=C/c2ccc(O)cc2)S1 [Mirin] + CC(=O)c1c(C)c2cnc(Nc3ccc(N4CCNCC4)cn3)nc2n(C2CCCC2)c1=O [Palbociclib] (partner 0.5 µM)
Procedure, shortened: as §1

Row | Cell Line | relative viability (Mirin + Decitabine; first compound 0.25 µM) | relative viability (Mirin + Decitabine; first compound 0.7906 µM) | relative viability (Mirin + Decitabine; first compound 2.5 µM) | relative viability (Mirin + Decitabine; first compound 7.906 µM) | relative viability (Mirin + Decitabine; first compound 25 µM) | relative viability (Mirin + Alpelisib; first compound 0.25 µM) | relative viability (Mirin + Alpelisib; first compound 2.5 µM) | relative viability (Mirin + Alpelisib; first compound 7.906 µM) | relative viability (Mirin + Alpelisib; first compound 25 µM) | relative viability ([1]; first compound 0.04 µM) | relative viability ([1]; first compound 0.1265 µM) | relative viability ([1]; first compound 0.4 µM) | relative viability ([1]; first compound 1.265 µM) | relative viability ([1]; first compound 4 µM) | relative viability (Mirin + Palbociclib; first compound 0.25 µM) | relative viability (Mirin + Palbociclib; first compound 2.5 µM) | relative viability (Mirin + Palbociclib; first compound 7.906 µM) | relative viability (Mirin + Palbociclib; first compound 25 µM) | relative viability (Mirin + Alpelisib; first compound 0.7906 µM) | relative viability (Mirin + Palbociclib; first compound 0.7906 µM)
1 | LK-2 | 0.161 | 0.206 | 0.299 | 0.21 | 0.227 | 0.899 | 1.1 | 0.743 | 0.397 | 0.198 | 0.159 | 0.173 | 0.179 | 0.171 | 0.538 | 0.774 | 0.463 | 0.188 |  | 
2 | NCI-H441 | 0.251 | 0.259 | 0.244 | 0.217 | 0.218 | 0.537 | 0.631 | 0.536 | 0.507 | 0.834 | 0.546 |  | 0.344 | 0.354 | 0.259 | 0.241 | 0.242 | 0.175 | 1.11 | 0.232
3 | NCI-H727 | 0.603 | 0.83 | 1 | 0.865 | 0.922 | 0.699 | 0.692 | 0.761 | 0.54 | 0.609 | 0.666 | 0.586 | 0.478 | 0.502 | 0.707 | 0.594 | 0.615 | 0.636 | 0.7 | 0.782
4 | NCI-H23 | 0.298 |  | 0.292 | 0.295 | 0.284 | 0.655 | 0.723 | 0.642 | 0.442 | 0.364 | 0.34 | 0.333 | 0.291 | 0.322 | 0.548 | 0.519 | 0.49 | 0.524 |  | 
5 | NCI-H1395 | 0.721 |  | 0.814 | 0.741 | 0.66 | 1.04 | 1.08 | 0.873 | 0.943 | 0.916 | 0.799 | 0.701 | 0.38 | 0.493 | 0.588 | 0.594 | 0.69 | 0.581 |  | 
6 | NCI-H460 | 0.517 | 0.504 | 0.467 | 0.505 | 0.539 | 0.511 | 0.559 | 0.515 | 0.236 | 0.563 | 0.601 | 0.311 | 0.036 | 0.0635 | 0.18 | 0.157 | 0.157 | 0.123 | 0.424 | 0.148
